Measured values published in patent US12655106B2 (Eikonizo Therapeutics, Inc., priority 2021, dated 2026).

Key:
[1] = molecular target: T1, Full length Human HDAC8 (Homo sapiens, UniProt Q9BY41); test: Caliper endpoint assay for HDAC enzymatic activity (HDAC8); assay type: biochemical; details: in vitro enzymatic, 30 min pre-incubation, 1 μM substrate peptide
T1 construct: Full length Human HDAC8; HIS (N); host or cells: baculovirus expression system
T1 sequence (Q9BY41 1-377): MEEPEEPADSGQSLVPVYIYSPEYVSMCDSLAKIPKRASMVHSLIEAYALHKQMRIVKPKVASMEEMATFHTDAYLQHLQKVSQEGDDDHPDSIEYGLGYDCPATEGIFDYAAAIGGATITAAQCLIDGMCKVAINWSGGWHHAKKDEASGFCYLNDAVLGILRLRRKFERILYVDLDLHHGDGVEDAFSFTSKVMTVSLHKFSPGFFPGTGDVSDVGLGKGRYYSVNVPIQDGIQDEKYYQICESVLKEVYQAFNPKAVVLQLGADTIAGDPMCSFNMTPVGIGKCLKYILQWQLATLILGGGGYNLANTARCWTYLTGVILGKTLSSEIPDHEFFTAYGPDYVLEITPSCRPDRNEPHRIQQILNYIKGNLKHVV

[2] = molecular target: T2, Full length Human HDAC6 (Homo sapiens, UniProt Q9UBN7); test: Caliper endpoint assay for HDAC enzymatic activity (HDAC6); assay type: biochemical; details: for IC50: in vitro enzymatic, Caliper endpoint assay, 30 min pre-incubation, 1 μM substrate peptide; for Selectivity (6 v 8): ratio of HDAC8 IC50/HDAC6 IC50
T2 construct: Full length Human HDAC6; FLAG (C); host or cells: baculovirus expression system
T2 sequence (Q9UBN7 1-1215): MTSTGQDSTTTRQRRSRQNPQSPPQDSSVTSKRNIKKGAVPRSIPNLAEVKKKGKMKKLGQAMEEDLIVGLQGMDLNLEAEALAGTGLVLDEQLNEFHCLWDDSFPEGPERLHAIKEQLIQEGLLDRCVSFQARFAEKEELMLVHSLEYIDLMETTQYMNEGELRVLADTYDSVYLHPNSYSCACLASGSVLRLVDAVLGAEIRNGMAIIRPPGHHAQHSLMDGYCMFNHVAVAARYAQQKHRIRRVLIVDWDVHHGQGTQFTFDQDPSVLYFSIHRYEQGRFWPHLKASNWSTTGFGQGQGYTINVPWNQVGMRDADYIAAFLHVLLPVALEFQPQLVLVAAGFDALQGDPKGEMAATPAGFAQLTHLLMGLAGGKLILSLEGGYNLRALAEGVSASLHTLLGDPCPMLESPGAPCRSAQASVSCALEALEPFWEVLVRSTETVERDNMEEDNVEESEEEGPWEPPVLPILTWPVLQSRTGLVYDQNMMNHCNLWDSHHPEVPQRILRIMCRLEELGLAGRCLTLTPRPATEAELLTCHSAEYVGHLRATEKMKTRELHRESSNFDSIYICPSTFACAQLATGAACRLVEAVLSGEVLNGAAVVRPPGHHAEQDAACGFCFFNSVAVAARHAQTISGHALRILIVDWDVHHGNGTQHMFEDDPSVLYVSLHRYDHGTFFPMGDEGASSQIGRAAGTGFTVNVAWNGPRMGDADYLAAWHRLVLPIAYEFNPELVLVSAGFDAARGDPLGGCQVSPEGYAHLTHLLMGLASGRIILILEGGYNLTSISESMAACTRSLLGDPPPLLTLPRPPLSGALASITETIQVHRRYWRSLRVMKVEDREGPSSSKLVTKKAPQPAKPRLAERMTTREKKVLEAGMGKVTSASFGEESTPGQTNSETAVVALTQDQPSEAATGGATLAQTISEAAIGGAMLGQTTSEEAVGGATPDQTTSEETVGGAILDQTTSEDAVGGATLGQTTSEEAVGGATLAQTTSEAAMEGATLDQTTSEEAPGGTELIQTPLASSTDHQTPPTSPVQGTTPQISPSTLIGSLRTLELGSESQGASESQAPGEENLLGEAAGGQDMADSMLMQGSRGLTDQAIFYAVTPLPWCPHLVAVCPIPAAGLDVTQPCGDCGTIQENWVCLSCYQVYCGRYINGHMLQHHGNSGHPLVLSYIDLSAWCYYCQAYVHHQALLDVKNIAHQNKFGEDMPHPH

SMILES	IC50 [1] [µM]	IC50 [2] [µM]	Selectivity (6 v 8) [2]
O=C(NO)c1ccc2c(c1)CCN1CCCC[C@@H]21 [Compound 89]	1 to 10	1 to 10	II (II: >1-10)
O=C(NO)c1ccc2c(c1)CCN1CCCC[C@H]21 [Compound 90]	1 to 10	1 to 10	II (II: >1-10)
O=C(NO)c1cc(F)c2c(c1)C[C@@H]1CCCCN1C2 [Compound 93]	1 to 10	0.001 to 0.1	IV (IV: >100-1000)
O=C(NO)c1cc(F)c2c(c1)C[C@H]1CCCCN1C2 [Compound 94]	1 to 10	0.1 to 1	III (III: >10-100)
CN1Cc2cc(C(=O)NO)cc(F)c2CN1Cc1ccccc1 [Compound 118]	1 to 10	0.001 to 0.1	IV (IV: >100-1000)
O=C(NO)c1cc(F)c2c(c1)C[C@H]1CCCN1C2 [Compound 120]	1 to 10	0.001 to 0.1	IV (IV: >100-1000)
O=C(NO)c1ccc2c(c1)C[C@@H]1CCCN1C2 [Compound 121]	10 to 100	0.1 to 1	III (III: >10-100)
O=C(NO)c1ccc2c(c1)C[C@H]1CCCN1C2 [Compound 122]	1 to 10	0.1 to 1	III (III: >10-100)
O=C(NO)c1cc(F)c2c(c1)CN1CCC[C@H]1C2 [Compound 123]	1 to 10	0.1 to 1	III (III: >10-100)
O=C(NO)c1cc(F)c2c(c1)CN1CCC[C@@H]1C2 [Compound 124]	1 to 10	0.001 to 0.1	IV (IV: >100-1000)
CC1(C)C[C@@H]2Cc3cc(C(=O)NO)cc(F)c3CN2C1 [Compound 126]	1 to 10	0.1 to 1	III (III: >10-100)
CC1(C)C[C@@H]2Cc3c(F)cc(C(=O)NO)cc3CN2C1 [Compound 127]	1 to 10	0.001 to 0.1	IV (IV: >100-1000)
CC1(C)C[C@H]2Cc3c(F)cc(C(=O)NO)cc3CN2C1 [Compound 128]	1 to 10	0.1 to 1	III (III: >10-100)
O=C(NO)c1ccc2c(c1)C[C@@H]1COCCN1C2 [Compound 131]	1 to 10	0.1 to 1	III (III: >10-100)
O=C(NO)c1ccc2c(c1)C[C@H]1COCCN1C2 [Compound 132]	1 to 10	0.001 to 0.1	IV (IV: >100-1000)
O=C(NO)c1ccc2c(c1)CN1CCCC[C@@H]1C2 [Compound 143]	1 to 10	0.1 to 1	III (III: >10-100)
O=C(NO)c1ccc2c(c1)CN1CCCC[C@H]1C2 [Compound 144]	10 to 100	0.1 to 1	III (III: >10-100)
O=C(NO)c1cc(F)c2c(c1)CN1CCCC[C@@H]1C2 [Compound 145]	10 to 100	0.001 to 0.1	IV (IV: >100-1000)

SMILES	IC50 [1] [µM]	IC50 [2] [µM]	Selectivity (6 v 8) [2]
O=C(NO)c1cc(F)c2c(c1)CN1CCCC[C@H]1C2 [Compound 146]	10 to 100	0.1 to 1	III (III: >10-100)
O=C(NO)c1ccc2c(c1)CCN1CCC[C@H]21 [Compound 148]	1 to 10	1 to 10	II (II: >1-10)
O=C(NO)c1ccc2c(c1)CCN1CCC[C@@H]21 [Compound 149]	1 to 10	0.1 to 1	II (II: >1-10)
O=C(NO)c1ccc2c(c1)CN1CCC[C@H]21 [Compound 164]	1 to 10	1 to 10	II (II: >1-10)
CC[C@H]1N(Cc2ccc(C(=O)NO)cc2F)CC12CCCC2 [Compound 169]	1 to 10	0.001 to 0.1	–
O=C(NO)c1ccc(CN2C[C@H]3CC[C@@H]2CO3)c(F)c1 [Compound 173]	1 to 10	0.001 to 0.1	–
O=C(NO)c1cc(F)c2c(c1)CCN(CC13CC4CC(CC(C4)N1)C3)C2 [Compound 176]	10 to 100	0.001 to 0.1	V (V: >1000)
O=C(NO)c1cc(F)c2c(c1)CCN(C1CC3(CCOCC3)C1)C2 [Compound 179, 8-Fluoro-N-hydroxy-2-(7-oxaspiro[3.5]nonan-2-yl)-1,2,3,4-tetrahydroisoquinoline-6-carboxamide]	> 100	0.001 to 0.1	V (V: >1000)
O=C(NO)c1cc(F)c2c(c1)CCN(C1CCC3(CCCCC3)CC1)C2 [Compound 182, 8-fluoro-2-spiro[5.5]undecan-3-yl-3,4-dihydro-1H-isoquinoline-6-carbohydroxamic acid]	10 to 100	0.001 to 0.1	IV (IV: >100-1000)
O=C(NO)c1cc(F)c2c(c1)CCN(C1CC3(CCCC3)C1)C2 [Compound 183, 8-fluoro-N-hydroxy-2-(spiro[3.4]octan-2-yl)-1,2,3,4-tetrahydroisoquinoline-6-carboxamide]	> 100	0.001 to 0.1	V (V: >1000)
O=C(NO)c1cc(F)c2c(c1)CCN(C1CCC3(CCC3)CC1)C2 [Compound 192, 8-fluoro-2-spiro[3.5]nonan-7-yl-3,4-dihydro-1H-isoquinoline-6-carbohydroxamic acid]	10 to 100	0.001 to 0.1	V (V: >1000)
O=C(NO)c1cc(F)c2c(c1)CCN(C1CCC3(CCCC3)CC1)C2 [Compound 193, 8-fluoro-2-spiro[4.5]decan-8-yl-3,4-dihydro-1H-isoquinoline-6-carbohydroxamic acid]	10 to 100	0.001 to 0.1	V (V: >1000)
O=C(NO)c1cc(F)c2c(c1)CCN(C1CC3(CCNCC3)C1)C2 [Compound 197, 2-(7-azaspiro[3.5]nonan-2-yl)-8-fluoro-3,4-dihydro-1H-isoquinoline-6-carbohydroxamic acid]	10 to 100	0.001 to 0.1	IV (IV: >100-1000)
CN1CCC2(CC1)CC(N1CCc3cc(C(=O)NO)cc(F)c3C1)C2 [Compound 198, 8-fluoro-N-hydroxy-2-(7-methyl-7-azaspiro[3.5]nonan-2-yl)-1,2,3,4-tetrahydroisoquinoline-6-carboxamide]	10 to 100	0.001 to 0.1	IV (IV: >100-1000)
CC(=O)N1CCC2(CC1)CC(N1CCc3cc(C(=O)NO)cc(F)c3C1)C2 [Compound 199, 2-(7-acetyl-7-azaspiro[3.5]nonan-2-yl)-8-fluoro-N-hydroxy-1,2,3,4-tetrahydroisoquinoline-6-carboxamide]	10 to 100	0.001 to 0.1	IV (IV: >100-1000)
CC1(C)CC(N2CCc3cc(C(=O)NO)cc(F)c3C2)C1 [Compound 201, 2-(3,3-dimethylcyclobutyl)-8-fluoro-3,4-dihydro-1H-isoquinoline-6-carbohydroxamic acid]	10 to 100	0.001 to 0.1	V (V: >1000)
O=C(NO)c1cc(F)c2c(c1)CN(CC13CC4CC(CC(C4)O1)C3)CC2 [Compound 213, 2-(((1r,3s,5R,7S)-2-oxaadamantan-1-yl)methyl)-5-fluoro-N-hydroxy-1,2,3,4-tetrahydroisoquinoline-7-carboxamide]	0.1 to 1	0.001 to 0.1	III (III: >10-100)
